Source: ChEMBL document CHEMBL1201862, “PubChem BioAssay data set” (2004)
One block for each compound: values may come before it. The source made the active and inactive calls.

Key:
Vero = test: viability loss in Vero cells – cell-based, plate reader, cherry-pick samples, cytotoxicity control, dose response (AID 687020); format: functional; conditions: Chlorocebus sabaeus
[1] = target: T1, Heat shock factor protein 1 (Mus musculus, UniProt P38532); test: decrease of HSF1-responsive luciferase luminescence – cell-based, NIH3T3, dose retest, confirmation (AID 2382); format: functional;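 note: NIH3T3 fibroblasts with HSF1-driven luciferase reporter stressed by proteasome inhibitor MG132; luminescence from HSF1-driven luciferase expression after 8 hours of MG132 stress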
T1 sequence (P38532 whole entry): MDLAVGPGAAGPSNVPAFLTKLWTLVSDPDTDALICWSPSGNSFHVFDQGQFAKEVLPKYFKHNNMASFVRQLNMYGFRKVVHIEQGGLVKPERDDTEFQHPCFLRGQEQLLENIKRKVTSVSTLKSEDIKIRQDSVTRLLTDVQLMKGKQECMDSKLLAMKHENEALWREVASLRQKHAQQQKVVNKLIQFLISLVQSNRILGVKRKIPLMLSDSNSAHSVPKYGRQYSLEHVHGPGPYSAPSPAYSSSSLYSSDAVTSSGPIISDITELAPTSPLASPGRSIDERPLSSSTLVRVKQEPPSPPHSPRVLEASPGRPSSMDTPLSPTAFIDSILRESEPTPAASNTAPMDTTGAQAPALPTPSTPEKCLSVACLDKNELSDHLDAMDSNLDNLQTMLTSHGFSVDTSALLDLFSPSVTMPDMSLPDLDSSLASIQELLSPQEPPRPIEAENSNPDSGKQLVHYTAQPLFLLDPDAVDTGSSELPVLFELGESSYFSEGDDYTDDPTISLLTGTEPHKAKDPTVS

Beta-galactosidase = Beta-galactosidase (Escherichia coli, UniProt Q8VNN2); test: Dose response counterscreen for EBI2 assay utilizing the enzyme, b-galactosidase.; format: functional
[2] = viability loss in HeLa cells – cytotoxicity control for MgcRacGAP inhibitor project, dose response (AID 624300); format: functional
[3] = target: T2, Mannose-6-phosphate isomerase (Homo sapiens, UniProt P34949); test: MPI inhibition at elevated mannose 6-phosphate – biochemical, fluorescence intensity, high mannose 6-phosphate, primary screen (AID 1220)
T2 sequence (P34949 whole entry): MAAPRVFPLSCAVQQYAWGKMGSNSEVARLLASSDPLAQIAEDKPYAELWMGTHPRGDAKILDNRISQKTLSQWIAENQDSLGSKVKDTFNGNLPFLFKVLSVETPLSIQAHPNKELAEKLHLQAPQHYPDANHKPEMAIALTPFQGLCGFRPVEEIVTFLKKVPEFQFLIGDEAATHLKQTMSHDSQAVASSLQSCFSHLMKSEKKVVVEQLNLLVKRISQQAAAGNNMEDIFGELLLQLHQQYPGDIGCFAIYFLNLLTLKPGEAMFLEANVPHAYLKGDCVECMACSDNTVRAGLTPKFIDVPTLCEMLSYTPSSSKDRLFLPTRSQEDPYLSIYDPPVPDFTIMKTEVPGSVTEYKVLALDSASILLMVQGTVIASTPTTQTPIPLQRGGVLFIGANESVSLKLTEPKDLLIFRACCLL

[4] = target: T3, Histone-lysine N-methyltransferase NSD2 (Homo sapiens, UniProt O96028); format: biochemical
T3 sequence (O96028 whole entry): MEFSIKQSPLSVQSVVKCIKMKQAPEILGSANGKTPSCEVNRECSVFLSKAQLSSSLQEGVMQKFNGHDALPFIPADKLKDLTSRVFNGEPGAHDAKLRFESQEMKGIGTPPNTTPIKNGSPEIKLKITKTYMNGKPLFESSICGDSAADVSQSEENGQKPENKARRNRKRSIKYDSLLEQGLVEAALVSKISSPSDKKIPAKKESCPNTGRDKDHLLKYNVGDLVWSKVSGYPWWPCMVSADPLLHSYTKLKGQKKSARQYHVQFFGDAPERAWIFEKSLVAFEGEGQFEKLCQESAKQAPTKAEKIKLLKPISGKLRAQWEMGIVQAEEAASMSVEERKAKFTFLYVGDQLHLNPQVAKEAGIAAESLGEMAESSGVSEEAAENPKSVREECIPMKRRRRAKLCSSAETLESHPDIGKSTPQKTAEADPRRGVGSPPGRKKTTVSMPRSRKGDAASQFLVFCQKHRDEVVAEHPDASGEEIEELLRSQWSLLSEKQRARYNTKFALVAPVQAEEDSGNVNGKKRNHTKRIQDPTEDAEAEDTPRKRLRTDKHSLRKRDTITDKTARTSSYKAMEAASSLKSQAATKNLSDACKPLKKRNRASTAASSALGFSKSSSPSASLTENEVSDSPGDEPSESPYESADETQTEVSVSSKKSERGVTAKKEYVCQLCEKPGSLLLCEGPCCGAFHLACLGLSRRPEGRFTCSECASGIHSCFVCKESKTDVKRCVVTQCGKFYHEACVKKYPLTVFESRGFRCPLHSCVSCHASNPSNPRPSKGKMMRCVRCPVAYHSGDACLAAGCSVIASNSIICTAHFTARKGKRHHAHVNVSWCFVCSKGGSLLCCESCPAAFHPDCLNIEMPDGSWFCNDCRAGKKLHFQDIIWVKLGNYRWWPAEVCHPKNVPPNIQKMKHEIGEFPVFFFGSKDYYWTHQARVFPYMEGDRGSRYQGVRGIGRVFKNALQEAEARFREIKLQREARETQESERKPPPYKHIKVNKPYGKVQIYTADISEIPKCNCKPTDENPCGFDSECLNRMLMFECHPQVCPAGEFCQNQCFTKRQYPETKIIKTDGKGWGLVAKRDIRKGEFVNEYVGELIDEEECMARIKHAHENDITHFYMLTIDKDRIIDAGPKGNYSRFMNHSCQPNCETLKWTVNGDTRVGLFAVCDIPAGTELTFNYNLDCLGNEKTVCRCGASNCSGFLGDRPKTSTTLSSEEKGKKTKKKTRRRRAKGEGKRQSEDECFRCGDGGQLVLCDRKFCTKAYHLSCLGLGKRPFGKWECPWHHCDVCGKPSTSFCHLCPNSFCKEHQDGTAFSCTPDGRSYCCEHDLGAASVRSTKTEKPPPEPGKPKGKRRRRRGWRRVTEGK

[5] = target: T4, Rac GTPase-activating protein 1 (Homo sapiens, UniProt Q9H0H5); test: blockers of MgcRacGAP-driven Rac1 GTP hydrolysis – biochemical, ADP Hunter fluorescence, primary and confirmatory, confirmation (AID 624330); format: functional
T4 sequence (Q9H0H5 whole entry): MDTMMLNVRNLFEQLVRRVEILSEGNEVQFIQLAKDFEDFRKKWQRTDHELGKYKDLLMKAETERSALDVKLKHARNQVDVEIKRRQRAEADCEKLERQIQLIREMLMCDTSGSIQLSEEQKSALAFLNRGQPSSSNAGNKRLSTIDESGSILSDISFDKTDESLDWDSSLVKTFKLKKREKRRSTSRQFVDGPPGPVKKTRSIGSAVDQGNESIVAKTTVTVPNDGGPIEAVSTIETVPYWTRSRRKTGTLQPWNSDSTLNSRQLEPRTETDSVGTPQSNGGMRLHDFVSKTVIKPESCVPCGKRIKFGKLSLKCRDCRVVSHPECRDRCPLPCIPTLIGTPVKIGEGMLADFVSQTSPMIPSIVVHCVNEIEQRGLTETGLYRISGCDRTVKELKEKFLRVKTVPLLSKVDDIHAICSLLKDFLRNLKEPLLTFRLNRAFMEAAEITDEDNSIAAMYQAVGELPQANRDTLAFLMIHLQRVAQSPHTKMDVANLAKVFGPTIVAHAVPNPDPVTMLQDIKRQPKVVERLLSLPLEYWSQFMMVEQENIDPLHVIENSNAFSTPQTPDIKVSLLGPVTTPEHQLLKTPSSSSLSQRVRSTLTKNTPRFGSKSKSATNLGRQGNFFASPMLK

Large T antigen = Large T antigen (Simian virus 40, UniProt P03070); format: functional, Betapolyomavirus macacae;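 note: Confirmatory-stage PubChem screen for compounds that inhibit SV40 T antigen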
[6] = target: T5, Small ubiquitin-related modifier 1 (Homo sapiens, UniProt P63165); test: SUMO1 protein interaction blockers, potency – biochemical, fluorescence polarization, uHTS hits, dose response (AID 624382); format: functional; conditions: read-out: IC50_Mean
[7] = target: Tyrosyl-DNA phosphodiesterase 2 (Homo sapiens, UniProt O95551); test: potency against TDP2 phosphodiesterase activity – biochemical, epi absorbance, IC50, dose response (AID 743297)
[8] = target: T5, Small ubiquitin-related modifier 1; test: SUMO1 protein-protein binding blockers, potency – biochemical, FRET, dose response (AID 624383); format: functional; conditions: read-out: IC50_Mean
[9] = viability loss in MITF-independent A375 cells – cell-based, CellTiter-Glo luminescence, dry powder, set 2, counter-screen for MITF inhibitor project, dose response (AID 624489); format: functional; conditions: A-375;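 note: actives are compounds lowering A375 viability meaning general cytotoxicity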
[10] = cytotoxicity in MITF-independent A375 cells – cell-based, CellTiter-Glo luminescence, dry powder, set 4, counter-screen for MITF inhibitor project, dose response (AID 624364); format: functional; conditions: A-375;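 note: A375 melanoma cells are MITF independent so this is a counter screen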
[11] = general mammalian cell viability loss – inhibitor set, cherry-pick, set 2, cytotoxicity control for miR-122 modulator project, dose response (AID 720697); format: functional, cell-based
[12] = activation of miR-122 Renilla sensor silencing – cell-based, Huh7 psiCHECK-miR122, Renilla luciferase, cherry-picked, dose response (AID 651956); format: functional;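 note: huh7 hepatoma cells stably carrying a psiCHECK-2 miR-122 sensor plasmid; renilla luciferase signal reporting endogenous miR-122 activity after 48 h compound exposure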

T5 sequence (P63165 whole entry): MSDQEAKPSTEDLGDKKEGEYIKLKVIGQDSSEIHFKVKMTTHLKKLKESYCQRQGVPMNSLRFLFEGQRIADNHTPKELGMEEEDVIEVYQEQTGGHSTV
Beta-galactosidase, sequence (Q8VNN2 whole entry): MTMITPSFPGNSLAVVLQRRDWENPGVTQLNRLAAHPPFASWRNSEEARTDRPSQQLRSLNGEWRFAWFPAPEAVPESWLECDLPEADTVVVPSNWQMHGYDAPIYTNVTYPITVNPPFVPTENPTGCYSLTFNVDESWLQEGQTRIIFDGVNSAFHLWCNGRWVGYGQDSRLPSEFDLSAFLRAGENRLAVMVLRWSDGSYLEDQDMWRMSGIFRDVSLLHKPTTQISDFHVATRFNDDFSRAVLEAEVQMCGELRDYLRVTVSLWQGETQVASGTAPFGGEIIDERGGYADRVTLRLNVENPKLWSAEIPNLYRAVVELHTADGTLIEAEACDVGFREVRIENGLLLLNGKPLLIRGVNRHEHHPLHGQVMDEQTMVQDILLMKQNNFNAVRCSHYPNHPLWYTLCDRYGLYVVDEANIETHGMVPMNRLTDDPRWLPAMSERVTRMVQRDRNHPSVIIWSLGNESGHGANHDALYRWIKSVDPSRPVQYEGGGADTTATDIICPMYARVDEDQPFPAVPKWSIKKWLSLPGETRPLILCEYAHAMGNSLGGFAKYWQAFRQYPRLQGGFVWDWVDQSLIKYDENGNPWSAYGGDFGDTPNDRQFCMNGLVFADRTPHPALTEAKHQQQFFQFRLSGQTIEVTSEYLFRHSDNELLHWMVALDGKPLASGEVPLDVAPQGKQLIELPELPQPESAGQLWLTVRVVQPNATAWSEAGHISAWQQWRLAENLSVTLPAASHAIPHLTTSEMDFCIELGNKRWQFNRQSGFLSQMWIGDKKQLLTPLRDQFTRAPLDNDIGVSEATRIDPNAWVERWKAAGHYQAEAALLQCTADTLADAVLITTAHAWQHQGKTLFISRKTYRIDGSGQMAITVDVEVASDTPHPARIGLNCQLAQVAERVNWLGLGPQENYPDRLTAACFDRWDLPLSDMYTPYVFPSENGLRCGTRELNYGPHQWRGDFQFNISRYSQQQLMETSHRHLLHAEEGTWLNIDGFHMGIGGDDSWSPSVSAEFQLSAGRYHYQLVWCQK
Tyrosyl-DNA phosphodiesterase 2, sequence (O95551 whole entry): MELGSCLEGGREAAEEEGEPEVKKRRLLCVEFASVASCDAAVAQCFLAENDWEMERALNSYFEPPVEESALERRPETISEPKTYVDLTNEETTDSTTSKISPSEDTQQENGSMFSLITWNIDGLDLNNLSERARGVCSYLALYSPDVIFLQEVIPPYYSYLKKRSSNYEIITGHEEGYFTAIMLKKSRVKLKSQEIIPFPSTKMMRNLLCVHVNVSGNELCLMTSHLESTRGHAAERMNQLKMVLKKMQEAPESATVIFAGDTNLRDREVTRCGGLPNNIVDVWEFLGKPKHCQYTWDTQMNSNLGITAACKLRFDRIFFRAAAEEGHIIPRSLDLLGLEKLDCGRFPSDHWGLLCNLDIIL
Large T antigen, sequence (P03070 whole entry): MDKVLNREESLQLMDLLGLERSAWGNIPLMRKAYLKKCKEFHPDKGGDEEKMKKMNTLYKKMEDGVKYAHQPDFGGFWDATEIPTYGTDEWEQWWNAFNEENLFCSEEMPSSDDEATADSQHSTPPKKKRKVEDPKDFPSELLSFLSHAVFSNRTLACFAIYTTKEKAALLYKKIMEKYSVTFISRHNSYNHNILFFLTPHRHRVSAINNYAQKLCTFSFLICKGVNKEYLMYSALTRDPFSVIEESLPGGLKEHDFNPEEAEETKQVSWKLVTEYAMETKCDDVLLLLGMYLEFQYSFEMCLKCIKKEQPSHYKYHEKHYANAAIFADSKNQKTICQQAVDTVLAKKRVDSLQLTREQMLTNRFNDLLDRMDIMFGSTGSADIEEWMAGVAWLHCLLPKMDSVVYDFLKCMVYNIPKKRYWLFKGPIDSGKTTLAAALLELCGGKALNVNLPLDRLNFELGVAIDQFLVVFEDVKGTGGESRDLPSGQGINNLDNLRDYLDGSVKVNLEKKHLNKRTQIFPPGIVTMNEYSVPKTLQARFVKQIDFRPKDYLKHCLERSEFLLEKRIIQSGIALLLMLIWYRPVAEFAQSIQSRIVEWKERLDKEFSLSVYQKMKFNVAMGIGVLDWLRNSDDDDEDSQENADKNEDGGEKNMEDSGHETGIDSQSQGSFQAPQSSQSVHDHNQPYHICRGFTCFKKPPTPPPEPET

SMILES: CCOC(=O)c1cc(S(=O)(=O)N2CCc3ccccc32)cn1C
AC50 (Vero): 17.9 µM (active)
EC50 [1]: > 195 µM (not active)

IC50 (Beta-galactosidase): > 80 µM (inactive)
SMILES: CCOC(=O)N1CCN(C(=O)c2cc3cc(Cl)ccc3[nH]2)CC1

IC50 [3]: 28.9 µM (active)
AC50 [4]: 7.86 µM (active)
IC50 [5]: 52.1 µM (active)
IC50 (Large T antigen): 23.1 µM (active)
SMILES: Oc1ccc(/C=N/Nc2cc(N3CCOCC3)nc(N3CCOCC3)n2)cc1O
CC50 [2]: 100 µM (active)

SMILES: CCC(CO)Oc1cc(NC(=O)c2cccc(OC)c2)c2ncn(C(C)C)c2c1 (configuration not stated)
IC50 [6]: > 66.6 µM (inactive)
IC50 [7]: 36.6 µM (inactive)
IC50 [8]: 12.7 µM (active)

IC50 (Beta-galactosidase): > 80 µM (inactive)
SMILES: CCN1CCN(C(=O)/C=C/c2ccc(OC)cc2)CC1

SMILES: C=CCNC1=C(N2CCSCC2)C(=O)c2ccccc2C1=O
AC50 [9]: 8.56 µM (active)
AC50 [10]: 24.3 µM (active)

SMILES: COc1ccc(C(=O)NCCNc2nc3c(C)cccc3cc2C#N)cc1OC
AC50 (Vero): 25.7 µM (active)

SMILES: CCNC(=O)C[C@@H]1CC[C@@H]2[C@H](COc3ccc(NC(=O)Nc4cccc(Cl)c4)cc3C(=O)N2C)O1
AC50 [11]: < 0.195 µM (active)
AC50 [12]: 4.02 µM (active)
